Laboratory results as given in article PMC11219735, “Fluorescence lifetime multiplexing with fluorogen activating protein FAST variants” (Communications Biology, 2024).

Key:
Assay in all cases: spectrofluorometric titration of purified protein
Format in all cases: binding
[1] = target: T1, FAST-P68K (Fluorescence-Activating and Absorption-Shifting Tag) (Halorhodospira halophila, UniProt P16113, P68K/C69G/Y94W/T95M/F96I/D97P/Y98T/Q99S/M100R)
T1 construct: gene pyp

[2] = target: T2, FAST-R52K (Fluorescence-Activating and Absorption-Shifting Tag) (Halorhodospira halophila, UniProt P16113, R52K/C69G/Y94W/T95M/F96I/D97P/Y98T/Q99S/M100R)
T2 construct: gene pyp

[3] = target: T3, FAST-P68T (Fluorescence-Activating and Absorption-Shifting Tag) (Halorhodospira halophila, UniProt P16113, P68T/C69G/Y94W/T95M/F96I/D97P/Y98T/Q99S/M100R)
T3 construct: gene pyp

[4] = target: T4, FAST-F62L (Fluorescence-Activating and Absorption-Shifting Tag) (Halorhodospira halophila, UniProt P16113, F62L/C69G/Y94W/T95M/F96I/D97P/Y98T/Q99S/M100R)
T4 construct: gene pyp
T4 sequence (P16113 whole entry F62L/C69G/Y94W/T95M/F96I/D97P/Y98T/Q99S/M100R): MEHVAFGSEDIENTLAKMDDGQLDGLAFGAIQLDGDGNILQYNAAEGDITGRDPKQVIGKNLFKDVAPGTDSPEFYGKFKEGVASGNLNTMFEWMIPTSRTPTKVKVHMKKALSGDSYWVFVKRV

T1 sequence (P16113 whole entry P68K/C69G/Y94W/T95M/F96I/D97P/Y98T/Q99S/M100R): as the sequence (P16113 whole entry F62L/C69G/Y94W/T95M/F96I/D97P/Y98T/Q99S/M100R) above, with L62F, P68K counted along it
T2 sequence (P16113 whole entry R52K/C69G/Y94W/T95M/F96I/D97P/Y98T/Q99S/M100R): as the sequence (P16113 whole entry F62L/C69G/Y94W/T95M/F96I/D97P/Y98T/Q99S/M100R) above, with R52K, L62F counted along it
T3 sequence (P16113 whole entry P68T/C69G/Y94W/T95M/F96I/D97P/Y98T/Q99S/M100R): as the sequence (P16113 whole entry F62L/C69G/Y94W/T95M/F96I/D97P/Y98T/Q99S/M100R) above, with L62F, P68T counted along it

Row | SMILES | Kd [1] | Kd [2] | Kd [3] | Kd [4]
1 | Cc1cc(/C=C2\SC(=S)NC2=O)c(C)cc1O [HBR-2,5-DM] | 84 nM | 46 nM | 90 nM | 
2 | COc1cc(/C=C2\SC(=S)NC2=O)c(OC)cc1O [HBR-DOM2, (Z)-5-(4-hydroxy-2,5-dimethoxybenzylidene)-2-thioxothiazolidin-4-ones] | 30 nM | 35 nM |  | 36 nM
3 | COc1cc(/C=C2\N=C(C(F)(F)F)N(C)C2=O)c(OC)cc1O [25DOM-HBI-2T, (Z)-5-(4-hydroxy-2,5-dimethoxybenzylidene)-3-methyl-2-(trifluoromethyl)-3,5-dihydro-4H-imidazol-4-one] | 340 nM | 440 nM |  | 
